Results taken from patent US6864051B1, “Plant gene constructs and their use” (priority 1997, dated 2005).

Key:
35S::ATH1 Arabidopsis = assay: Rescue of 35S::ATH1 Arabidopsis seeds/seedlings on growth medium containing GA3; format: in vivo, Arabidopsis thaliana; settings: growth medium containing 10^-5 M GA3 for three days
Excerpt: In order to gain more insight into the role of ATH1 in plant development, the full length ATH1 cDNA was fused to the constitutive 35S promoter of cauliflower mosaic virus and the 35S::ATH1 chimeric gene was transformed into Arabidopsis via the vacuum infiltration method. Six independent primary transformants could be obtained and all transgenic lines were selfed. From each independent transgenic line 40 individual seeds were germinated and scored for altered phenotypes compared to wild type plants. […] Once rescued and transferred to soil plants developed normally, except for a late flowering phenotype. Under short day conditions transgenic plants form much more rosette leaves (vegetative leaves) than wild type plants (about 40 rosette leaves and 100 days after germination, and plants are still not flowering, compared to about 30 rosette leaves in wild-type plants until flowering). Under LD conditions in most of these plants a partial generative to vegetative reversion occurs, shown by the formation of aerial rosettes (vegetative leaves) on the inflorescence stem. Plants (C24 ecotype) containing an extra copy of the ATH1 cDNA under control of the Hsp18.2 heat shock promoter (HspHlB plants) also show a late-flowering phenotype. […]

[1] = tested on: tobacco plants overexpressing ATH1; assay: Foliar application (spraying) of GA3 to tobacco plants overexpressing ATH1; format: in vivo, Nicotiana tabacum; settings: 35S::ATH1 tobacco; for late-flowering phenotype of ATH1 overexpressing tobacco after GA spraying: foliar GA3 spraying, data not shown
Procedure: Tobacco plants (Nicotiana tabacum L. cv. Samsun NN) were transformed using the leaf disk procedure (Horsch et al., 1985). Transgenic plants were selected on MS-medium (Murashige and Skoog, 1962) containing […] kanamycin and 2% sucrose. After transfer to soil plants were grown in a greenhouse at 22° C. under a light regime of 16 hours daylight when necessary supplemented with artificial light. The effects of gibberellin (GA) were tested by foliar applications (spraying) of 100 mM GA3 in a solution containing 100 ml/l of Triton X-100. Control plants were sprayed with a solution containing only 100 ml/l of Triton X-100. Spraying began 60 days after sowing when the wild-type plants were approximately 5 cm tall and the 35S CaMV::ATH1 plants approximately 2.5 cm tall, and continued at 3- to 4-day intervals. Plant height was measured every 3 to 4 days and this will be continued until the onset of flowering, as determined by the appearance of flower primordia.

C=C1C[C@]23C[C@@]1(O)CC[C@H]2[C@@]12C=C[C@H](O)[C@@](C)(C(=O)O1)[C@H]2[C@@H]3C(=O)O [GA3, gibberellin A3]
poor germination and arrest in seedling stage of 35S::ATH1 Arabidopsis (35S::ATH1 Arabidopsis): could be overcome
late-flowering phenotype of ATH1 overexpressing tobacco after GA spraying [1]: holds also true
late-flowering phenotype of ATH1 overexpressing tobacco after GA spraying ([1]; listed as GA): rescue
stem length (plant height) of ATH1 overexpressing tobacco after GA3 ([1]; spraying of 100 mM GA3 at three to four day intervals): complete restoration of the wild-type stem length
